Here are results for 9 compounds from ChEMBL document CHEMBL5143537, “Quinazoline-based hydroxamic acid derivatives as dual histone methylation and deacetylation inhibitors for potential anticancer agents” (Bioorg Med Chem, 2022).

Data set [1] relates to HCT-116. Put plainly: Antiproliferative activity against human HCT-116 cells measured after 72 hrs by MTT assay. The conditions noted are these: HCT-116, 72 h. Format: functional, cell-based.
For data set [2], the system named is A-431. Put plainly: Antiproliferative activity against human A-431 cells measured after 72 hrs by MTT assay. Conditions: A-431, 72 h. Format: functional, cell-based.
The subject of data set [3] is HT-29. Nature of the data set: Antiproliferative activity against human HT-29 cells measured after 72 hrs by MTT assay. In kind it is functional, cell-based. Conditions: HT-29, 72 h. (Formazan colour is commonly taken as a measure of viable cells.)
In data set [4] the target is T1, Histone-lysine N-methyltransferase EHMT1 (Homo sapiens, UniProt Q9H9B1).
T1 sequence (Q9H9B1 whole entry): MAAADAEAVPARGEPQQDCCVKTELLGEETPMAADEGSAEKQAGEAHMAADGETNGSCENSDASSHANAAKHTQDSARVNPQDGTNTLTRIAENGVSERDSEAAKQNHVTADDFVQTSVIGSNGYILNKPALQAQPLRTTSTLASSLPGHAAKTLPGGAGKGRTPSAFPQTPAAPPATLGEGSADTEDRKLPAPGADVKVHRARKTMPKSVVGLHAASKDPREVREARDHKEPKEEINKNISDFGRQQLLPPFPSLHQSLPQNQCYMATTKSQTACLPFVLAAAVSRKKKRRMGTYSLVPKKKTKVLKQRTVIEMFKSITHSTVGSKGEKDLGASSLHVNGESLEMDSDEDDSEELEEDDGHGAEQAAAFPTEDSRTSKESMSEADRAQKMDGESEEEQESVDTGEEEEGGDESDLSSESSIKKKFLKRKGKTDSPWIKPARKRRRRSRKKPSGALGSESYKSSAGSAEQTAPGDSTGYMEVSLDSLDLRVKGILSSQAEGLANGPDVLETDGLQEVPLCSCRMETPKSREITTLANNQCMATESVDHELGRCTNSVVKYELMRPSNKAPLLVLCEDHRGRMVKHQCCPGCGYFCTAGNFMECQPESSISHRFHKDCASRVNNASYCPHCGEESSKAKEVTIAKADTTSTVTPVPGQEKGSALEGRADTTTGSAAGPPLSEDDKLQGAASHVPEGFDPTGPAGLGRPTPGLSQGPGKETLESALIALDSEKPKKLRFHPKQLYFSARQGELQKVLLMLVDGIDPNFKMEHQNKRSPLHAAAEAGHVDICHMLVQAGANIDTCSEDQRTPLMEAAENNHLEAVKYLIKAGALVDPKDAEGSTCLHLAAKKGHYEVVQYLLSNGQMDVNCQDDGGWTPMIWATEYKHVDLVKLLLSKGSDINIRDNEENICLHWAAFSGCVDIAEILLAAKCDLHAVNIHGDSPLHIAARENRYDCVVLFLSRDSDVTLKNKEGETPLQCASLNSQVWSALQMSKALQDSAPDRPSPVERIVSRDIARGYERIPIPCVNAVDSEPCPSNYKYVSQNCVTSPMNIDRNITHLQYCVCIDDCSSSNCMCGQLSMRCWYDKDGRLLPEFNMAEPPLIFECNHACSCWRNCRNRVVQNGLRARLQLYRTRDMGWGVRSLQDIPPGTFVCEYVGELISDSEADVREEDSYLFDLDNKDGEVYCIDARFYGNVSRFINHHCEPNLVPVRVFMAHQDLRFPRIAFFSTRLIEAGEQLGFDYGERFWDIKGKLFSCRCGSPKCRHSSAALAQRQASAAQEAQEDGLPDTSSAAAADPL
Put plainly: Inhibition of GLP (unknown origin).

Data set [5] addresses Histone deacetylase 1 (Homo sapiens, UniProt Q13547). Put plainly: Inhibition of recombinant human HDAC1 expressed in baculovirus infection system using Ac-peptide-AMC as substrate preincubated for 15 mins followed by substrate addition and measured after 60 mins by fluorescence assay.
In data set [6] the target is T2, Protein deacetylase HDAC6 (Homo sapiens, UniProt Q9UBN7).
T2 sequence (Q9UBN7 whole entry): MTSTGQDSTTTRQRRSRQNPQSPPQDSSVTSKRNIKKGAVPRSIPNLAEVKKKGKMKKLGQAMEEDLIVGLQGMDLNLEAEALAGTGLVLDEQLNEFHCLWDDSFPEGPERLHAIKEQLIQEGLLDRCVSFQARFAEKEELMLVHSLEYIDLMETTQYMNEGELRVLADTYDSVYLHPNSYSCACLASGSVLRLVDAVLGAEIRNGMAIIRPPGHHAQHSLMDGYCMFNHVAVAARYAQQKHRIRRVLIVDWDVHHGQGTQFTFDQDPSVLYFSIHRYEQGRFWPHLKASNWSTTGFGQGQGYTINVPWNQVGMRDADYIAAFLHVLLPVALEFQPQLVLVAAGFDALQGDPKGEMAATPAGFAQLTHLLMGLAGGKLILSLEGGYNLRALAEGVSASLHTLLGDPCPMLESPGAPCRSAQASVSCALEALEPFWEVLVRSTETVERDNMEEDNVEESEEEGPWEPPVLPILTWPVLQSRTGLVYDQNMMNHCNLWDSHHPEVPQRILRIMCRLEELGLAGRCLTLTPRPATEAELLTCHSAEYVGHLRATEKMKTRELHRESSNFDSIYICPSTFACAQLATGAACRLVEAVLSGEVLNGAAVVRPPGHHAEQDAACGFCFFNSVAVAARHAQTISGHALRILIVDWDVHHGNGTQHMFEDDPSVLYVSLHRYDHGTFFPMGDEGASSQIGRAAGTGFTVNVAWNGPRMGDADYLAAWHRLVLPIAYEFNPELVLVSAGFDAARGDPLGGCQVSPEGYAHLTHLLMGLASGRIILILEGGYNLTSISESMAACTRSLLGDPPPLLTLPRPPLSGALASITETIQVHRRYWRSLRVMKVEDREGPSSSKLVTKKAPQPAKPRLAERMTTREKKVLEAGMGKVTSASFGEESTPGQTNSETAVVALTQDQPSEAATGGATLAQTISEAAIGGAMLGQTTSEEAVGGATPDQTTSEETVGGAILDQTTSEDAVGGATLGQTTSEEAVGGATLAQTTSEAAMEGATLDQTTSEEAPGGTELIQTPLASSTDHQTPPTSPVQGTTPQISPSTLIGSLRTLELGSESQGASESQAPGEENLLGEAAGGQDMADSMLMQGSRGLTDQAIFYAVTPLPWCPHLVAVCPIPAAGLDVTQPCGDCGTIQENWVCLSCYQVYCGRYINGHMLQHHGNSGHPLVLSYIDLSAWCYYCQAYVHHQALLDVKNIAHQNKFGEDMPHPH
Put plainly: Inhibition of recombinant HDAC6 (unknown origin) using Ac-peptide-AMC as substrate preincubated for 15 mins followed by substrate addition and measured after 60 mins by fluorescence assay.

The test system of data set [7] is HepG2. Put plainly: Antiproliferative activity against human HepG2 cells measured after 72 hrs by MTT assay. The conditions noted are these: HepG2, 72 h. In kind it is functional, cell-based.
The nature of data set [8]: Cytotoxicity against human HL7702 cells measured after 72 hrs by MTT assay. Conditions: HL7702 (L02) cells.
Data set [9] deals with MDA-MB-231. Nature of the data set: Antiproliferative activity against human MDA-MB-231 cells measured after 72 hrs by MTT assay. In kind it is functional, cell-based. The conditions noted are these: MDA-MB-231, 72 h.
For data set [10], the system named is K562. Nature of the data set: Antiproliferative activity against human K562 cells measured after 72 hrs by MTT assay. In kind it is functional, cell-based. The conditions noted are these: K562, 72 h.
Data set [11] relates to HeLa. Nature of the data set: Antiproliferative activity against human HeLa cells measured after 72 hrs by MTT assay. In kind it is functional, cell-based.
Data set [12] in a line: Half life in rat liver microsomes at 1 uM by LC-MS/MS analysis. In kind it is ADME, Microsome.
The nature of data set [13]: Intrinsic clearance in rat liver microsomes at 1 uM by LC-MS/MS analysis. In kind it is ADME, Microsome. Conditions: read-out: CLH. Background: Microsomes from liver hold many membrane-bound enzymes, among them those of drug oxidation.

Bounds are passed on as bounds.

Histone deacetylase 1, sequence (Q13547 whole entry): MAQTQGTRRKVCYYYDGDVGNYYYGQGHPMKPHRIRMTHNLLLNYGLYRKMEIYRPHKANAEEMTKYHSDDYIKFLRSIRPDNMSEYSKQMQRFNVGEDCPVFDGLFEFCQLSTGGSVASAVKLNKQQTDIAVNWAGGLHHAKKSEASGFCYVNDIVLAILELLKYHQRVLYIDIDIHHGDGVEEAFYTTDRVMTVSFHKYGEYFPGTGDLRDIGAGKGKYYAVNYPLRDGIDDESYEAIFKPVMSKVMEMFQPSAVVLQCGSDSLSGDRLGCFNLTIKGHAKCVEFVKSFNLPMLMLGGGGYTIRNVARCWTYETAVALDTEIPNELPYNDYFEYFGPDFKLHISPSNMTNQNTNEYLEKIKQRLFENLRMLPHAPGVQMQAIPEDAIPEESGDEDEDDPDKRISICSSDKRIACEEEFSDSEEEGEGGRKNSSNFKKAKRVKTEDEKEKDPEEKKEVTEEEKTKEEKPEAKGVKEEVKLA

As a reminder, the IC50 is the concentration that gives 50% inhibition. Regarding `COc1cc2nc(N3CCN(CCCCCC(=O)NO)CC3)nc(NC3CCN(C(C)C)CC3)c2cc1OC`, the IC50 in data set [1] is above 50 µM; in data set [2] it was above 50 µM; in data set [3], 8 µM; in data set [4], 0.0016 µM; in data set [5], 0.051 µM; in data set [6], 0.024 µM. Also, the IC50 in [7] was 12.1 µM; in data set [9], above 50 µM; in data set [10] it was 10.1 µM; in [11] it was 29.7 µM. The same compound had an IC50 at 72 h in data set [8] above 50 µM.

The term half-life denotes how long it takes for the measured level to halve. Higher therefore signals slow loss. Consider `O=C(c1ccc(F)cc1)C1CCN(CCn2c(=O)[nH]c3ccccc3c2=O)CC1` [KETANSERIN], for which the half-life at 1 µM in data set [12] was found to be 16.2 min. In addition, in data set [13], the CLint scaled at 1 µM worked out at 153 mL/min/kg.

For the compound `COc1cc2nc(NCCCCCC(=O)NO)nc(NC3CCN(C)CC3)c2cc1OC`, the IC50 in data set [1] amounted to 6.93 µM; in data set [2] it was 5.86 µM; in data set [3], 5.31 µM; in data set [4], 0.011 µM; in [5] it was 0.0013 µM; in data set [6], 0.051 µM. Moreover, the IC50 in data set [7] was 13.4 µM; in data set [9], 44.2 µM; in [10], 9.21 µM; in data set [11], 6.39 µM. Moreover, it took 31.7 µM to reach half-maximal inhibition in [8] (IC50 at 72 h).

For the compound `COc1cc2nc(N3CCN(Cc4ccc(/C=C/C(=O)NO)cc4)CC3)nc(NC3CCN(Cc4ccccc4)CC3)c2cc1OC`, the IC50 is above 50 µM in data set [1]; above 50 µM in data set [2]; above 50 µM in data set [3]; 0.19 µM in [4]; 0.094 µM in data set [5]; 0.05 µM in [6]. Also, the IC50 in data set [7], in [9], in data set [10] and in [11] was above 50 µM throughout. The 50% inhibitory concentration (IC50) at 72 h in data set [8] is above 50 µM.

`COc1cc2c(NC3CCN(C(C)C)CC3)nc(N3CCC(F)(F)CC3)nc2cc1OCCCN1CCCC1`: the IC50 in data set [1] turned out to be 5.01 µM; in data set [2], 3.38 µM; in data set [3], 1.35 µM; in [7], 2.69 µM; in data set [9], 3.23 µM; in data set [10] it was 0.92 µM. This compound returned a half-inhibitory concentration (IC50) in data set [11] of 1.74 µM. In data set [8], this compound displayed an IC50 at 72 h of 3.23 µM.

Turning to `COc1cc2nc(NCCCCCC(=O)NO)nc(NC3CCN(Cc4ccccc4)CC3)c2cc1OC`, the IC50 in data set [1] came to 44.5 µM; in data set [2], 16.9 µM; in data set [3] it was 12.9 µM; in data set [4], 0.0092 µM; in data set [5], 0.0032 µM; in [6] it was 0.017 µM. In addition, the IC50 was determined as 2.13 µM in data set [7], 7.89 µM in data set [9], 7.89 µM in data set [10] and 8.85 µM in [11]. Further, the IC50 at 72 h in data set [8] was 19.8 µM.

As for `COc1cc2nc(NCCCCCCC(=O)NO)nc(NC3CCN(C)CC3)c2cc1OC`, the IC50 in data set [1] was above 50 µM; in data set [2], above 50 µM; in data set [3], 12.9 µM; in data set [4] it was 0.021 µM; in [5], 0.0058 µM; in data set [6], 0.016 µM. Besides, the IC50 was 6.76 µM in data set [7], above 50 µM in [9], 17 µM in data set [10] and 9.49 µM in [11]. For the same compound, the IC50 at 72 h in data set [8] was above 50 µM.

As to `COc1cc2nc(NCCCCCCC(=O)NO)nc(NC3CCN(C(C)C)CC3)c2cc1OC`, the IC50 in [1] was found to be 3.75 µM; in data set [2], 23.1 µM; in data set [3], 4.21 µM; in data set [4], 0.011 µM; in [5] it was 0.0042 µM; in data set [6], 0.012 µM. The IC50 in [7] was 4.72 µM; in data set [9] it was above 50 µM; in data set [10], 5.21 µM; in [11], 17.4 µM. Also, the IC50 at 72 h in data set [8] worked out at 12.7 µM.

`COc1cc2nc(NCCCCCC(=O)NO)nc(NC3CCN(C(C)C)CC3)c2cc1OC`: the IC50 was 25.7 µM in data set [1]; above 50 µM in data set [2]; 47.4 µM in data set [3]; 0.097 µM in data set [4]; 0.0084 µM in data set [5]; 0.131 µM in data set [6]. The IC50 in [7] is above 50 µM; in data set [9], above 50 µM; in data set [10] it was above 50 µM; in data set [11] it was 37.4 µM. Moreover, in data set [8], the IC50 at 72 h is above 50 µM.
